Assay results: PubChem BioAssay (NCI)
Values joined by “and” are separate entries in the source; they are usually repeats but may differ in a detail not shown here. Identical values can stand only once.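 Tested at 5 concentrations; 48 h exposure; 96-well plates; endpoints linearly interpolated, else capped at highest concentration. Abbreviation: GI50, concentration required for 50% inhibition of growth. TGI denotes the concentration required for complete inhibition of growth.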

Legend:
Assay in all cases: growth of human tumour cells (NCI), 48 h
[1] = system: RXF 393 renal
[2] = system: SF-539 CNS
[3] = system: OVCAR-8 ovarian
[4] = system: OVCAR-5 ovarian
[5] = system: NCI-H226 lung
[6] = system: SNB-19 CNS
[7] = system: HT29 colon
[8] = system: MALME-3M melanoma
[9] = system: SNB-75 CNS
[10] = system: NCI-H522 lung

| SMILES | GI50 [1] | TGI [1] | GI50 [2] | TGI [2] | GI50 [3] | TGI [3] | GI50 [4] | TGI [4] | GI50 [5] | TGI [5] | GI50 [6] | TGI [6] | GI50 [7] | TGI [7] | GI50 [8] | TGI [8] | GI50 [9] | TGI [9] | GI50 [10] | TGI [10] |
| --- | --- | --- | --- | --- | --- | --- | --- | --- | --- | --- | --- | --- | --- | --- | --- | --- | --- | --- | --- | --- |
| CSc1ccc(C2=NN(C(C)=O)C(c3ccc(-c4ccc(Cl)cc4)o3)C2)cc1 (configuration not stated) | 44.6 µM | > 100 µM | 60.2 µM | > 100 µM | 81.7 µM | > 100 µM | > 100 µM | > 100 µM | 44.4 µM | > 100 µM | > 100 µM | > 100 µM | 30.4 µM | > 100 µM | 43.2 µM | > 100 µM | 25.4 µM | > 100 µM | 18.7 µM | 60.3 µM |
| N#CC1(C#N)C(c2ccccc2)C=CC12OCCCO2 (configuration not stated) |  | 49.2 µM |  | 45.9 µM |  | 43 µM |  | > 100 µM |  | > 100 µM |  | > 100 µM |  | > 100 µM |  | > 100 µM |  | > 100 µM |  | 32.6 µM |
| Nc1n[nH]c2ccc([C@@H]3Nc4cc5c(cc4[C@H]4C6CCC(C6)[C@@H]34)C(=O)NC5)cc12 (some centres not stated) | 0.273 µM |  | 0.258 µM | 0.814 µM | 0.445 µM | > 100 µM | 1.06 µM | > 100 µM | 0.461 µM | > 20.9 µM | 0.57 µM | > 100 µM | 0.393 µM | > 100 µM | 0.718 µM | > 100 µM | 0.718 µM | > 100 µM | 0.305 µM | > 100 µM |
| Cc1ccccc1-n1c(N)c(-c2nc3ccccc3[nH]2)sc1=S |  | 62.4 µM |  | 41.1 µM |  | 84.2 µM |  | > 100 µM |  | 74.4 µM |  | 66.4 µM |  | 36.9 µM |  | 45.1 µM |  | 56.6 µM |  | 50.3 µM |
| CCCCNc1nc(NC2OCC(OC(C)=O)C(OC(C)=O)C2OC(C)=O)c(N=O)c(=O)n1C (configuration not stated) |  | > 10 µM |  | > 10 µM |  | > 10 µM |  | > 10 µM |  | > 10 µM |  | > 10 µM |  | > 10 µM |  | > 10 µM |  | > 10 µM |  | > 10 µM |
| Oc1cccc2c1NCCC2 | 0.177 µM | 32.7 µM | 0.14 µM | > 47.3 µM | 0.129 µM | 22.3 µM | 4.35 µM | > 100 µM | 3.07 µM | 35.2 µM | 0.164 µM | > 100 µM | 5.19 µM | > 100 µM | 0.135 µM | 98.9 µM | 0.159 µM | > 100 µM | 0.0937 µM | 1.75 µM |
| Fc1cccc(F)c1C(Nc1nncs1)Nc1nncs1 |  | > 100 µM |  | > 100 µM |  | > 100 µM |  | > 100 µM |  | > 100 µM |  | > 100 µM |  | > 100 µM |  | > 100 µM |  | > 100 µM |  | > 100 µM |
| Clc1ccc(C2ON=C(c3ccccc3)N2C23CC4CC(CC(C4)C2)C3)cc1 (configuration not stated) |  | > 10 µM |  | > 10 µM |  | > 10 µM |  | > 10 µM |  | > 10 µM |  | > 10 µM |  | > 10 µM |  | > 10 µM |  | > 10 µM |  | > 10 µM |
| COc1cc(C(=O)c2cc(C)c3[nH]c4ccc(O)cc4c3c2C)cc(OC)c1OC | < 0.01 µM | 3.11 µM | < 0.0113 µM |  | 0.0317 µM | > 100 µM | 0.0511 µM | > 100 µM | 0.0943 µM | > 81.3 µM | 0.0289 µM | > 47.3 µM | 0.0276 µM |  | 0.0347 µM | > 100 µM | < 0.01 µM | 8.71 µM | < 0.01 µM | 2.21 µM |
| COc1ccc(/C=C(\C)[N+](=O)[O-])cc1OC | 1.72 µM | 3.18 µM | 1.74 µM | 3.17 µM | 2.61 µM | 6.29 µM | 1.73 µM | 3.31 µM | 19.2 µM | 40.5 µM | 11.3 µM | 23.6 µM | 2.2 µM | 4.43 µM | 1.4 µM | 3.17 µM | 2.2 µM | 12.2 µM | 1.34 µM | 2.94 µM |
| N[C@H](COCc1ccccc1)c1ccccc1 |  | > 72.6 µM |  | 75.1 µM |  | > 100 µM |  | 87.2 µM |  | 77.5 µM |  | > 89.7 µM |  | > 93.9 µM |  | > 93.6 µM |  | 56 µM |  | 39.1 µM |
| COc1ccc(/C=C(/C)[N+](=O)[O-])cc1OC | 1.7 µM and 1.42 µM | 3.16 µM and 2.78 µM | 2.08 µM and 2.22 µM | 3.94 µM and 4.7 µM | 2.62 µM and 3.22 µM | 8 µM and 10 µM | 4.12 µM and 5 µM | 12.4 µM and 16.1 µM | 5.03 µM and 3.71 µM | 9.63 µM and 13.4 µM | 6.82 µM and 3.16 µM | 20 µM and 12.6 µM | 2.62 µM and 1.41 µM | 5.92 µM and 4.07 µM | 1.69 µM and 0.38 µM | 3.89 µM and 1.56 µM | 4.71 µM and 3.76 µM | 18 µM and 13.9 µM | 0.456 µM and 0.48 µM | 1.14 µM and 2.26 µM |
| CC1=C(C(=O)Nc2ccc(Cl)c(Cl)c2)C(c2ccc([N+](=O)[O-])cc2)C(C(=O)Nc2ccc(Cl)c(Cl)c2)=C(C)N1 |  | 6.16 µM |  | 12.1 µM |  | 8.58 µM |  | 10 µM |  | 11.6 µM |  | > 71.3 µM |  | 7.55 µM |  | 7.06 µM |  | 20.5 µM |  | 8.85 µM |
| CN1CCN(CCCCCN=c2cc3c(=O)n(CCCCCN4CCN(C)CC4)c(=O)c4c(NCCCCCN5CCN(C)CC5)cc5c(O)n(CCCCCN6CCN(C)CC6)c(=O)c2c5c4-3)CC1 | 24.3 µM | > 100 µM | 2.64 µM | 8.32 µM | 3.92 µM | 17.2 µM | 2.13 µM | 7.79 µM | 3.25 µM | 21.6 µM | 2.14 µM | 7.16 µM | 1.45 µM | 5.31 µM | 2.55 µM | 5.98 µM | 2.66 µM | 10.2 µM | 1.46 µM | 3.93 µM |
| COc1cc(/C=C/c2ccc3c(Br)cc(Br)c(O)c3n2)ccc1O | 3.8 µM | 18.3 µM | 2.29 µM | 10.3 µM | 2.14 µM | 15.5 µM | 1.49 µM | 5.84 µM | 4.61 µM | 17.4 µM | 2.67 µM | 15.2 µM | 3.86 µM | 12.8 µM | 4.81 µM | 18.4 µM | 2.5 µM | 10.1 µM | 2.36 µM | 11 µM |
